Laboratory results reported in US9884818B2, “Sulphamoylpyrrolamide derivatives and the use thereof as medicaments for the treatment of hepatitis B” (Janssen Sciences Ireland UC, priority 2013, dated 2018).

Key:
[1] = tested on: HBV; assay: Anti-HBV activity, HepG2.2.15 stable transfected cell line, HBV DNA from secreted virions by realtime PCR; format: cell-based; conditions: Hepatitis B virus, HepG2.2.15, 144 h, HepG2.2.15 cells, 6 days of treatment, HBV DNA from secreted virions; read-out: HepG2 2.15 EC50
[2] = tested on: HBV; assay: Anti-HBV activity, HepG2.117 inducibly HBV producing cell line (Tet-off), intracellular HBV DNA by realtime PCR; format: cell-based; conditions: Hepatitis B virus, HepG2.117, 72 h, HepG2.117 cells, 3 days of treatment, intracellular HBV DNA; read-out: HepG2 117 EC50
[3] = Cytotoxicity in HepG2 cells, Resazurin viability assay; conditions: human, HepG2 cells, HepG2 4 days CC50 (μM), incubated for 4 days, Resazurin assay

Compound | EC50 [1] | EC50 [2] | CC50 at 4 days [3]
Cn1cc(S(=O)(=O)NC(C)(C)C)cc1C(=O)Nc1ccc(F)c(C#N)c1 [Compound 190, 4-(tert-Butylsulfamoyl)-N-(3-cyano-4-fluorophenyl)-1-methyl-1H-pyrrole-2-carboxamide] | 90 nM | 100 nM | > 25 µM
Cn1cc(S(=O)(=O)NC2(C)COC2)c(F)c1C(=O)Nc1ccc(F)c(F)c1 [Compound 74, N-(3,4-difluorophenyl)-3-fluoro-1-methyl-4-[(3-methyloxetan-3-yl)-sulfamoyl]pyrrole-2-carboxamide] | 20 nM | 20 nM | > 25 µM
Cn1cc(S(=O)(=O)NC(C)(C)C)cc1C(=O)Nc1ccc(F)c(C(C)(F)F)c1 [Compound 162, 4-(tert-Butylsulfamoyl)-N-[3-(1,1-difluoroethyl)-4-fluorophenyl]-1-methyl-1H-pyrrole-2-carboxamide] | > 1000 nM | 890 nM | > 25 µM
Cn1cc(S(=O)(=O)NCC(F)F)cc1C(=O)Nc1ccc(F)c(F)c1 [Compound 129, 4-[(2,2-Difluoroethyl)sulfamoyl]-N-(3,4-difluorophenyl)-1-methyl-1H-pyrrole-2-carboxamide] | 170 nM | 80 nM | > 25 µM
CC(C)NS(=O)(=O)c1cc(C(=O)Nc2cc(F)c(F)c(Br)c2)n(C)c1 [Compound 46, N-(3-bromo-4,5-difluoro-phenyl)-4-(isopropylsulfamoyl)-1-methyl-pyrrole-2-carboxamide] | 120 nM | 170 nM | > 25 µM
Cc1c(S(=O)(=O)NC(C)C)cn(C)c1C(=O)Nc1ccc(F)c(Cl)c1F [Compound 208, N-(3-Chloro-2,4-difluorophenyl)-1,3-dimethyl-4-[(1-methylethyl)sulfamoyl]-1H-pyrrole-2-carboxamide] | 200 nM | 660 nM | > 25 µM
C[C@H](NS(=O)(=O)c1cc(C(=O)Nc2ccc(F)c(F)c2)n(C)c1)C(F)(F)F [Compound 93, N-(3,4-Difluorophenyl)-1-methyl-4-{[(1S)-2,2,2-trifluoro-1-methyl-ethyl]sulfamoyl}-1H-pyrrole-2-carboxamide] | 30 nM | 30 nM | > 25 µM
Cc1c(S(=O)(=O)N[C@H](C)C(F)(F)F)cn(C)c1C(=O)Nc1ccc(F)c(Cl)c1F [Compound 210, N-(3-Chloro-2,4-difluorophenyl)-1,3-dimethyl-4-{[(1R)-2,2,2-trifluoro-1-methylethyl]sulfamoyl}-1H-pyrrole-2-carboxamide] | 50 nM | 50 nM | > 25 µM
Cc1cc(NC(=O)c2cc(S(=O)(=O)N[C@@H](C)C(F)(F)F)cn2C)ccc1F [Compound 8, N-(4-fluoro-3-methyl-phenyl)-1-methyl-4-[[(1S)-2,2,2-trifluoro-1-methyl-ethyl]sulfamoyl]pyrrole-2-carboxamide] | 20 nM | 20 nM | > 25 µM
Cn1cc(S(=O)(=O)NCC(F)(F)F)cc1C(=O)Nc1ccc(F)c(Cl)c1 [Compound 131, N-(3-Chloro-4-fluorophenyl)-1-methyl-4-[(2,2,2-trifluoroethyl)sulfamoyl]-1H-pyrrole-2-carboxamide] | 10 nM | 10 nM | > 25 µM
Cc1c(S(=O)(=O)N[C@H](C)C(F)(F)F)cc(C(=O)Nc2ccc(F)c(F)c2)n1C [Compound 139, N-(3,4-Difluorophenyl)-1,5-dimethyl-4-{[(1R)-2,2,2-trifluoro-1-methylethyl]sulfamoyl}-1H-pyrrole-2-carboxamide] | 50 nM | 30 nM | > 25 µM
C[C@@H](NS(=O)(=O)c1cn(C)c(C(=O)Nc2ccc(F)c(C#N)c2)c1F)C(F)(F)F [Compound 170, N-(3-Cyano-4-fluorophenyl)-3-fluoro-1-methyl-4-{[(1R)-2,2,2-trifluoro-1-methylethyl]sulfamoyl}-1H-pyrrole-2-carboxamide] | < 5 nM | 5 nM | > 100 µM
Cc1cc(NC(=O)c2cc(S(=O)(=O)N[C@H](C)CS(C)(=O)=O)cn2C)ccc1F [Compound 97, N-(4-Fluoro-3-methylphenyl)-1-methyl-4-{[(1R)-1-methyl-2-(methyl-sulfonyl)ethyl]sulfamoyl}-1H-pyrrole-2-carboxamide] | 30 nM | 30 nM | > 25 µM
Cn1cc(S(=O)(=O)NC2(C)COC2)cc1C(=O)Nc1ccc(F)c(C(C)(F)F)c1 [Compound 161, N-[3-(1,1-Difluoroethyl)-4-fluorophenyl]-1-methyl-4-[(3-methyloxetan-3-yl)sulfamoyl]-1H-pyrrole-2-carboxamide] | > 1000 nM | 910 nM | > 25 µM
Cc1c(S(=O)(=O)NC2(C)COC2)cn(C)c1C(=O)Nc1ccc(F)c(C#N)c1 [Compound 152, N-3-Cyano-4-fluoromethyl-4-[(3-methyloxetan-3-yl)sulfamoyl]-1H-pyrrole-2-carboxamide] | 240 nM | 80 nM | > 25 µM
C[C@H](CO)NS(=O)(=O)c1cc(C(=O)Nc2ccc(F)c(C(F)F)c2)n(C)c1 [Compound 40, N-[3-(difluoromethyl)-4-fluoro-phenyl]-4-[[(1R)-2-hydroxy-1-methyl-ethyl]sulfamoyl]-1-methyl-pyrrole-2-carboxamide] | 200 nM | 120 nM | > 25 µM
CNC(=O)C1(NS(=O)(=O)c2cc(C(=O)Nc3cc(F)c(F)c(Cl)c3)n(C)c2)CC1 [Compound 115, N-(3-Chloro-4,5-difluorophenyl)-1-methyl-4-{[1-(methylcarbamoyl)cyclopropyl]sulfamoyl}-1H-pyrrole-2-carboxamide] | 300 nM | 110 nM | > 25 µM
C[C@@H](NS(=O)(=O)c1cn(C)c(C(=O)Nc2ccc(F)c(C#N)c2)c1C#N)C(F)(F)F [Compound 293, 3-cyano-N-(3-cyano-4-fluoro-phenyl)-1-methyl-4-[[(1R)-2,2,2-trifluoro-1-methyl-ethyl]sulfamoyl]pyrrole-2-carboxamide] | 20 nM | 50 nM | > 25 µM
Cn1cc(S(=O)(=O)NCC(F)(F)F)cc1C(=O)Nc1ccc(F)c(Br)c1 [Compound 135, N-(3-Bromo-4-fluorophenyl)-1-methyl-4-[(2,2,2-trifluoroethyl)sulfamoyl]-1H-pyrrole-2-carboxamide] | 20 nM | 260 nM | > 25 µM
[2H]c1c(F)c(F)c(F)c([2H])c1NC(=O)c1cc(S(=O)(=O)NC(C)(C)C)cn1C [Compound 71, 4-(tert-butylsulfamoyl)-N-(2,6-dideuterio-3,4,5-trifluoro-phenyl)-1-methyl-pyrrole-2-carboxamide] | 100 nM | 130 nM | > 25 µM
Cn1cc(S(=O)(=O)NC(C)(C)C)cc1C(=O)Nc1cc(F)cc(C#N)c1 [Compound 53, 4-(tert-butylsulfamoyl)-N-(3-cyano-5-fluoro-phenyl)-1-methyl-pyrrole-2-carboxamide] | 260 nM | 180 nM | > 25 µM
C[C@@H](NS(=O)(=O)c1cn(C)c(C(=O)Nc2cccc(Br)c2)c1Cl)C(F)(F)F [Compound 250, N-(3-Bromophenyl)-3-chloro-1-methyl-4-{[(1R)-2,2,2-trifluoro-1-methylethyl]sulfamoyl}-1H-pyrrole-2-carboxamide] | 7 nM | 400 nM | 20 µM
Cc1cc(NC(=O)c2cc(S(=O)(=O)NC3(C)COC3)cn2C)ccc1C#N [Compound 83] | > 1000 nM | 1350 nM | > 25 µM
Cc1cc(NC(=O)c2cc(S(=O)(=O)N[C@H]3CCOC3)cn2C)cc(C)c1F [Compound 31, N-(4-fluoro-3,5-dimethyl-phenyl)-1-methyl-4-[[(3S)-tetrahydrofuran-3-yl]-sulfamoyl]pyrrole-2-carboxamide] | 130 nM | 390 nM | > 25 µM
Cc1c(S(=O)(=O)N[C@@H](C)C(F)(F)F)cn(C)c1C(=O)Nc1ccc(F)c(F)c1 [Compound 146, N-(3,4-Difluorophenyl)-1,3-dimethyl-4-{[(1S)-2,2,2-trifluoro-1-methylethyl]sulfamoyl}-1H-pyrrole-2-carboxamide] | 70 nM | 40 nM | > 25 µM
Cc1cc(NC(=O)c2cc(S(=O)(=O)N[C@H]3CCOC3)cn2C)cc(F)c1F [Compound 37, N-(3,4-difluoro-5-methyl-phenyl)-1-methyl-4-[[(3S)-tetrahydrofuran-3-yl]-sulfamoyl]pyrrole-2-carboxamide] | 730 nM | 380 nM | > 25 µM
Cn1cc(S(=O)(=O)NC(C)(C)C)c(Cl)c1C(=O)Nc1ccc(F)c(Cl)c1F [Compound 224, 4-(tert-Butylsulfamoyl)-3-chloro-N-(3-chloro-2,4-difluorophenyl)-1-methyl-1H-pyrrole-2-carboxamide] | 220 nM | 260 nM | > 25 µM
Cn1cc(S(=O)(=O)NCC(F)(F)F)cc1C(=O)Nc1ccc(F)c(C#N)c1 [Compound 134, N-(3-Cyano-4-fluorophenyl)-1-methyl-4-[(2,2,2-trifluoroethyl)sulfamoyl]-1H-pyrrole-2-carboxamide] | 180 nM | 130 nM | > 25 µM
Cc1cc(NC(=O)c2cc(S(=O)(=O)N[C@@H](C)C(F)(F)F)cn2C)cc(F)c1F [Compound 104, N-(3,4-Difluoro-5-methylphenyl)-1-methyl-4-{[(1S)-2,2,2-trifluoro-1-methylethyl]sulfamoyl}-1H-pyrrole-2-carboxamide] | 20 nM | 20 nM | > 25 µM
